The subject of one experiment is P. aeruginosa. The note with it: cited from earlier work.
The next experiment concerns P. aeruginosa PAO1. Description: Effect of analogs on the potency of fluoroquinolone antibiotics, strain PAO1. The note with it: PAO1, ciprofloxacin 0.25 μg/mL, 18 h, M63 + 4 μM Fe. Type of experiment: cell-based, Pseudomonas aeruginosa.
Where [1] appears, read: fluoroquinolone at the reported MIC, Figure 9 legend.

Read-outs that look alike come from different tables or passages of the source.

For `CCn1cc(C(=O)O)c(=O)c2cc(F)c(N3CCNCC3)cc21` [norfloxacin], the “reported MIC” value in the experiment with P. aeruginosa (setting [1]) was 0.9 µg/mL.

As to `O=C(O)c1cn(C2CC2)c2cc(N3CCNCC3)c(F)cc2c1=O` [ciprofloxacin], in the experiment on P. aeruginosa PAO1, the “% survival relative to untreated control, ciprofloxacin only” value is recorded as “approximately 10%”. For the same compound, the “reported MIC” value in the experiment on P. aeruginosa is 0.25 µg/mL.

On to `C[C@H]1COc2c(N3CCN(C)CC3)c(F)cc3c(=O)c(C(=O)O)cn1c23` [levofloxacin], for which the “reported MIC” value with P. aeruginosa (setting [1]) was 0.5 µg/mL.

The values are drawn from publication PMC6535718 (Journal of the American Chemical Society, 2019).
